Assays:
rat mGlu2 receptor = target: T1, rat mGlu2 receptor (Rattus norvegicus, UniProt P31421); assay: [3H]-LY354740 binding on mGlu2 transfected CHO cell membranes; conditions: inhibition of 10 nM [3H]-LY354740 binding, membranes of CHO cells transfected with rat mGlu2, room temperature, 1 hour
T1 construct: expressed in transfected cells; membranes prepared
Procedure, shortened: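 Membranes from CHO cells stably expressing rat mGlu2 (25 μg protein/ml) incubated 1 hour at room temperature with 10 nM [3H]-LY354740 and test compound in 50 mM Tris-HCl, 2 mM MgCl2, pH 7.4. Non-specific binding defined with 10 μM DCG IV; bound radioactivity counted after filtration. IC50 from four-parameter logistic fit.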

T1 sequence (P31421 19-872): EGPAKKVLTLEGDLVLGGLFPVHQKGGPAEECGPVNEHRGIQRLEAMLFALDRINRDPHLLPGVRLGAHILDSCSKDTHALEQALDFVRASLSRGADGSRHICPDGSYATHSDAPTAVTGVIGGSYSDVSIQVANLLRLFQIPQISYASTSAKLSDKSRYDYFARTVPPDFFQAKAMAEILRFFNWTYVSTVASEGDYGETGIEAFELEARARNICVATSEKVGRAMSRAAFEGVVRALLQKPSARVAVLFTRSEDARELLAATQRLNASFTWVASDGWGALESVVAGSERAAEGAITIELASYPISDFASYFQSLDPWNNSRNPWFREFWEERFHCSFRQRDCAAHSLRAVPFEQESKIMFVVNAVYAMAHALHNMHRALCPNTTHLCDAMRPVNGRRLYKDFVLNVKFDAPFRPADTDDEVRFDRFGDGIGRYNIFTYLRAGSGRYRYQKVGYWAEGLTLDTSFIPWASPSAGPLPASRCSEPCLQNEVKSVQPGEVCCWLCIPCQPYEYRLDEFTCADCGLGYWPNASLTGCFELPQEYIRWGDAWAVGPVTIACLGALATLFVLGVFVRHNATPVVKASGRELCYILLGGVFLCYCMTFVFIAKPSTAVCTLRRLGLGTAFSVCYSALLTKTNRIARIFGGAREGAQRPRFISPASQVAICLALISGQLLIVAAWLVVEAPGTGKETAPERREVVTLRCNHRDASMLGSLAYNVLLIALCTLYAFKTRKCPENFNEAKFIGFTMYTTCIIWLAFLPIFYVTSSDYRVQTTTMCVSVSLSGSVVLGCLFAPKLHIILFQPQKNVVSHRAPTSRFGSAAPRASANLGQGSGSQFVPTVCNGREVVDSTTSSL

| SMILES | Ki (rat mGlu2 receptor) [nM] | melting point |
| --- | --- | --- |
| NS(=O)(=O)c1cnc(-c2cn(-c3cc(-c4ccc(C(F)(F)F)cc4)cc(C(F)(F)F)n3)cn2)s1 [Example 313, 2-{1-[6-Trifluoromethyl-4-(4-trifluoromethyl-phenyl)-pyridin-2-yl]-1H-imidazol-4-yl}-thiazole-5-sulfonic acid amide] | 18 | > 250 °C |
| Cc1cc(-c2ccc(C(F)(F)F)cc2)cc(-c2ccnc(-c3cccc(NS(C)(=O)=O)c3)c2)n1 [Example 318, N-{3-[6-Methyl-4-(4-trifluoromethyl-phenyl)-[2,4′]bipyridinyl-2′-yl]-phenyl}-methanesulfonamide] | 4 | 196 °C |
| Cc1cc(-c2ccc(C(F)(F)F)cc2)cc(-c2ccnc(-c3cccc(S(C)(=O)=O)c3)n2)n1 [Example 355, 2-(3-Methanesulfonyl-phenyl)-4-[6-methyl-4-(4-trifluoromethyl-phenyl)-pyridin-2-yl]-pyrimidine] | 1 | 208 °C |
| CSc1cccc(-c2cccc(-c3cc(-c4ccc(C(F)(F)F)cc4)cc(C)n3)n2)c1 [Example 357, 6-Methyl-6′-(3-methylsulfanyl-phenyl)-4-(4-trifluoromethyl-phenyl)-[2,2′]bipyridinyl] | 39 | 144 °C |
| Cc1cc(-c2ccc(C(F)(F)F)cc2)cc(-c2ccnc(-c3ccnc(N)c3)n2)n1 [Example 360, 4-{4-[6-Methyl-4-(4-trifluoromethyl-phenyl)-pyridin-2-yl]-pyrimidin-2-yl}-pyridin-2-ylamine] | 5 | 217 °C |
| Nc1ccc(-c2cn(-c3nc(-c4ccc(F)c(F)c4)cc(C(F)(F)F)n3)cn2)cn1 [Example 384, 5-{1-[4-(3,4-Difluoro-phenyl)-6-trifluoromethyl-pyrimidin-2-yl]-1H-imidazol-4-yl}-pyridin-2-ylamine] | 32 | 232 °C |
| Cc1cc(-c2ccc(C(F)(F)F)cc2)cc(-c2cccc(-c3cccc(S(=O)(=O)NCC(F)(F)F)c3)n2)n1 [Example 445, 3-[6′-Methyl-4′-(4-trifluoromethyl-phenyl)-[2,2′]bipyridinyl-6-yl]-N-(2,2,2-trifluoro-ethyl)-benzenesulfonamide] | 3 | 198 °C |
| CCOc1cc(-c2cc(C(F)(F)F)nc(-c3ccnc(-c4cccc(S(N)(=O)=O)c4)c3)n2)ccc1C(F)(F)F [Example 452, 3-{4-[4-(3-Ethoxy-4-trifluoromethyl-phenyl)-6-trifluoromethyl-pyrimidin-2-yl]-pyridin-2-yl}-benzenesulfonamide] | 16 | 223.5 °C |

Continued by falling Ki (rat mGlu2 receptor), values first:

| Ki (rat mGlu2 receptor) [nM] | melting point | SMILES |
| --- | --- | --- |
| 22 | 180 °C (dec.) | Cc1cc(-c2ccc(C(F)(F)F)cc2)cc(-c2ccnc(-c3cccc(S(=O)(=O)N4CCN(C)CC4)c3)c2)n1 [Example 350, 6-Methyl-2′-[3-(4-methyl-piperazine-1-sulfonyl)-phenyl]-4-(4-trifluoromethyl-phenyl)-[2,4′]bipyridinyl] |
| 21 | 184 °C | O=S(=O)(c1cccc(-c2cc(-c3nc(-c4ccc(C(F)(F)F)cc4)cc(C(F)(F)F)n3)ccn2)c1)N1CCCC1 [Example 390, 2-{2-[3-(Pyrrolidine-1-sulfonyl)-phenyl]-pyridin-4-yl}-4-trifluoromethyl-6-(4-trifluoromethyl-phenyl)-pyrimidine] |
| 16 | 209 °C | Cc1cc(-c2ccc(C(F)(F)F)cc2)nc(-c2ccnc(-c3ccc(S(=O)(=O)NC(C)(C)C)s3)c2)c1 [Example 320, 5-[4-Methyl-6-(4-trifluoromethyl-phenyl)-[2,4′]bipyridinyl-2′-yl]-thiophene-2-sulfonic acid tert-butylamide] |
| 7 | 202 °C | O=S(=O)(c1cccc(-c2cc(-c3nc(-c4ccc(C(F)(F)F)cc4)cc(C(F)(F)F)n3)ccn2)c1)N1CCOCC1 [Example 377, 4-(3-{4-[4-Trifluoromethyl-6-(4-trifluoromethyl-phenyl)-pyrimidin-2-yl]-pyridin-2-yl}-benzenesulfonyl)-morpholine] |
| 4 | 115 °C | Cc1cc(-c2ccc(C(F)(F)F)cc2)cc(-c2ccnc(-c3cccc(S(=O)(=O)N4CCOCC4)c3)c2)n1 [Example 346, 6-Methyl-2′-[3-(morpholine-4-sulfonyl)-phenyl]-4-(4-trifluoromethyl-phenyl)-[2,4′]bipyridinyl] |
| 3 | 110 °C (dec.) | Cc1cc(-c2ccc(C(F)(F)F)cc2)cc(-c2cccc(-c3cccc(S(C)(=O)=O)c3)c2)n1 [Example 353, 2-(3′-Methanesulfonyl-biphenyl-3-yl)-6-methyl-4-(4-trifluoromethyl-phenyl)-pyridine] |
| 3 | 208 °C | NS(=O)(=O)c1cccc(-c2cccc(-c3nc(-c4ccc(F)cc4)cc(C(F)(F)F)n3)c2)c1 [Example 394, 3′-[4-(4-Fluoro-phenyl)-6-trifluoromethyl-pyrimidin-2-yl]-biphenyl-3-sulfonic acid amide] |
| 1 | 186 °C | Cc1cc(-c2ccc(C(F)(F)F)cc2)cc(-c2cccc(-c3cccc(S(C)(=O)=O)c3)n2)n1 [Example 356, 6′-(3-Methanesulfonyl-phenyl)-6-methyl-4-(4-trifluoromethyl-phenyl)-[2,2′]bipyridinyl] |

Source: patent US8183262B2, “Pyridine derivatives as mGluR2 antagonists” (Hoffmann-La Roche Inc., priority 2007, dated 2012)
